The Ki is the equilibrium dissociation constant of an inhibitor or competing ligand from its target. High values mean weaker binding, low ones tighter binding.

In this test the target is T1, ITK (Homo sapiens, UniProt Q08881).
T1 construct: purchased Invitrogen PV3875
T1 sequence (Q08881 1-620): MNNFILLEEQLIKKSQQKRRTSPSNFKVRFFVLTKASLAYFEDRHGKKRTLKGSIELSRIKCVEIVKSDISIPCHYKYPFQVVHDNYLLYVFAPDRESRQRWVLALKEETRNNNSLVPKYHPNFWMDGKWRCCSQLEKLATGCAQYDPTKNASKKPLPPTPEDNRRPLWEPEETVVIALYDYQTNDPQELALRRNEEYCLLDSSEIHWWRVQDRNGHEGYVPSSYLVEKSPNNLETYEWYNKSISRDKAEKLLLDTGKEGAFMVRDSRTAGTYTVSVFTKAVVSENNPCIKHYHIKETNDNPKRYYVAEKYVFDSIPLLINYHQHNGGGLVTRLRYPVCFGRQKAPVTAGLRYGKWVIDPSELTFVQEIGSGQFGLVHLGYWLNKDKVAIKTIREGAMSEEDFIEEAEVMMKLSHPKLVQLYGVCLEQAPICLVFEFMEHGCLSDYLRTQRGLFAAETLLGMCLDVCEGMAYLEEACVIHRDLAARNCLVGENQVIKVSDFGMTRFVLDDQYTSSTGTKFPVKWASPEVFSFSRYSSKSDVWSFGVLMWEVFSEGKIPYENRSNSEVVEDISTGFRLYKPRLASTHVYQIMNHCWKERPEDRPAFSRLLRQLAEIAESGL
Description: ITK enzyme assay (Caliper or LCMS peptide phosphorylation). In kind it is biochemical. The settings on record: purified ITK (Invitrogen PV3875), 20 μM ATP, Ki by Morrison's quadratic equation. The procedure: The ability of purified ITK (Invitrogen PV3875) to catalyze peptide phosphorylation is monitored using a Caliper LabChip 3000 microfluidic unit (Caliper assay) or by liquid chromatography-mass spectrometry (LCMS) using a Waters Acquity system (LCMS assay). […] Reactions are quenched by the addition of 2,2′,2″,2′″-(ethane-1,2-diyldinitrilo)tetraacetic acid (50 mM final). Non-phosphorylated substrate and phosphorylated product peptides are separated and quantified using a Caliper LabChip 3000 instrument. […] Reactions are quenched by the addition of trichloroacetic acid (5% v/v final). Non-phosphorylated substrate and phosphorylated product peptides are separated by ultra performance LC and detected by a coupled triple quadrupole MS device applying multiple reaction monitoring (MRM) for quantification. The area of the MRM-extracted mass signal is used to assess the inhibition by test compounds. Equilibrium dissociation constant (Ki) values for ITK inhibitors are calculated from plots of activity vs. inhibitor concentration using Morrison's quadratic equation that accounts for the potential of tight binding, and by also applying the conversion factor that accounts for competitive inhibition and the concentration of ATP used in the assay relative to its apparent Michaelis constant (Km,app).
On to `CC1(C)CCc2c(C(=O)Nc3cnn(C(CN4CCCC4=O)c4ccccc4)c3)n[nH]c2C1` (racemic) [Example 76, 6,6-dimethyl-N-(1-(2-(2-oxopyrrolidin-1-yl)-1-phenylethyl)-1H-pyrazol-4-yl)-4,5,6,7-tetrahydro-1H-indazole-3-carboxamide], for which the Ki worked out at 4 nM.
As for `N#Cc1cccc(Cn2cc(NC(=O)c3n[nH]c4c3CCC(c3cn[nH]c3)C4)cn2)c1` (single isomer, unassigned) [Example 1a, N-(1-(3-cyanobenzyl)-1H-pyrazol-4-yl)-6-(1H-pyrazol-4-yl)-4,5,6,7-tetrahydro-1H-indazole-3-carboxamide], the figure is 9.4 nM; as for `N#Cc1cccc(Cn2cc(NC(=O)c3n[nH]c4c3CCC(c3cn[nH]c3)C4)cn2)c1` (single isomer, unassigned) [Example 1b, N-(1-(3-cyanobenzyl)-1H-pyrazol-4-yl)-6-(1H-pyrazol-4-yl)-4,5,6,7-tetrahydro-1H-indazole-3-carboxamide], 8.3 nM; as for `N#Cc1cccc(Cn2cc(NC(=O)c3n[nH]c4c3CC(c3cn[nH]c3)CC4)cn2)c1` (single isomer, unassigned) [Example 2a, N-(1-(3-cyanobenzyl)-1H-pyrazol-4-yl)-5-(1H-pyrazol-4-yl)-4,5,6,7-tetrahydro-1H-indazole-3-carboxamide], 68 nM.
`N#Cc1cccc(Cn2cc(NC(=O)c3n[nH]c4c3CC(c3cn[nH]c3)CC4)cn2)c1` (single isomer, unassigned) [Example 2b, N-(1-(3-cyanobenzyl)-1H-pyrazol-4-yl)-5-(1H-pyrazol-4-yl)-4,5,6,7-tetrahydro-1H-indazole-3-carboxamide] displayed a Ki of 34 nM.
To `N#Cc1cccc(Cn2cc(NC(=O)c3n[nH]c4c3CCC(c3cncnc3)C4)cn2)c1` (single isomer, unassigned) [Example 4a, N-(1-(3-cyanobenzyl)-1H-pyrazol-4-yl)-6-(pyrimidin-5-yl)-4,5,6,7-tetrahydro-1H-indazole-3-carboxamide] belongs 360 nM; to `N#Cc1cccc(Cn2cc(NC(=O)c3n[nH]c4c3CCC(c3cncnc3)C4)cn2)c1` (single isomer, unassigned) [Example 4b, N-(1-(3-cyanobenzyl)-1H-pyrazol-4-yl)-6-(pyrimidin-5-yl)-4,5,6,7-tetrahydro-1H-indazole-3-carboxamide], 240 nM; to `N#Cc1cccc(Cn2cc(NC(=O)c3n[nH]c4c3CCC(O)C4)cn2)c1` (single isomer, unassigned) [Example 5a, N-(1-(3-cyanobenzyl)-1H-pyrazol-4-yl)-6-hydroxy-4,5,6,7-tetrahydro-1H-indazole-3-carboxamide], 310 nM.
In turn, `N#Cc1cccc(Cn2cc(NC(=O)c3n[nH]c4c3CCC(O)C4)cn2)c1` (single isomer, unassigned) [Example 5b, N-(1-(3-cyanobenzyl)-1H-pyrazol-4-yl)-6-hydroxy-4,5,6,7-tetrahydro-1H-indazole-3-carboxamide] showed a Ki of 380 nM.
Regarding `CC1CCc2[nH]nc(C(=O)Nc3cnn(Cc4ccccc4)c3)c2C1` (single isomer, unassigned) [Example 8a, N-(1-benzyl-1H-pyrazol-4-yl)-5-methyl-4,5,6,7-tetrahydro-1H-indazole-3-carboxamide], the inhibition constant Ki amounted to 70 nM.
To `CC1CCc2[nH]nc(C(=O)Nc3cnn(Cc4ccccc4)c3)c2C1` (single isomer, unassigned) [Example 8b, N-(1-benzyl-1H-pyrazol-4-yl)-5-methyl-4,5,6,7-tetrahydro-1H-indazole-3-carboxamide] belongs 77 nM; to `O=C(Nc1cnn(Cc2ccccc2)c1)c1n[nH]c2c1CCC(CO)C2` (single isomer, unassigned) [Example 14a, N-(1-benzyl-1H-pyrazol-4-yl)-6-(hydroxymethyl)-4,5,6,7-tetrahydro-1H-indazole-3-carboxamide], 120 nM; to `O=C(Nc1cnn(Cc2ccccc2)c1)c1n[nH]c2c1CCC(CO)C2` (single isomer, unassigned) [Example 14b, N-(1-benzyl-1H-pyrazol-4-yl)-6-(hydroxymethyl)-4,5,6,7-tetrahydro-1H-indazole-3-carboxamide], 21 nM.
As for `CN(C)CCC(c1ccccc1)n1cc(NC(=O)c2n[nH]c3c2CCC2(COC2)C3)cn1` (single isomer, unassigned) [Example 15a, N-(1-(3-(dimethylamino)-1-phenylpropyl)-1H-pyrazol-4-yl)-1,4,5,7-tetrahydrospiro[indazole-6,3′-oxetane]-3-carboxamide], the figure is 11 nM.
The compound `CN(C)CCC(c1ccccc1)n1cc(NC(=O)c2n[nH]c3c2CCC2(COC2)C3)cn1` (single isomer, unassigned) [Example 15b, N-(1-(3-(dimethylamino)-1-phenylpropyl)-1H-pyrazol-4-yl)-1,4,5,7-tetrahydrospiro[indazole-6,3′-oxetane]-3-carboxamide] had a Ki of 100 nM.
As for `CN(C)CCC(c1ccccc1)n1cc(NC(=O)c2n[nH]c3c2CCC2(CC2)C3)cn1` (single isomer, unassigned) [Example 16a, N-(1-(3-(dimethylamino)-1-phenylpropyl)-1H-pyrazol-4-yl)-1′,4′,5′,7′-tetrahydrospiro[cyclopropane-1,6′-indazole]-3′-carboxamide], the figure is 0.5 nM; as for `CN(C)CCC(c1ccccc1)n1cc(NC(=O)c2n[nH]c3c2CCC2(CC2)C3)cn1` (single isomer, unassigned) [Example 16b, N-(1-(3-(dimethylamino)-1-phenylpropyl)-1H-pyrazol-4-yl)-1′,4′,5′,7′-tetrahydrospiro[cyclopropane-1,6′-indazole]-3′-carboxamide], 7.9 nM.
To `O=C(Nc1cnn(Cc2ccccc2)c1)c1n[nH]c2c1C1CC1CC2` (single isomer, unassigned) [Example 23a, N-(1-benzyl-1H-pyrazol-4-yl)-3,4,5,5a,6,6a-hexahydrocyclopropa[e]indazole-1-carboxamide] belongs 24 nM; to `O=C(Nc1cnn(Cc2ccccc2)c1)c1n[nH]c2c1C1CC1CC2` (single isomer, unassigned) [Example 23b, N-(1-benzyl-1H-pyrazol-4-yl)-3,4,5,5a,6,6a-hexahydrocyclopropa[e]indazole-1-carboxamide], 550 nM.
To `CC[C@@H](c1ccccc1)n1cc(NC(=O)c2n[nH]c3c2CC2CC2C3)cn1` (single isomer, unassigned) [Example 24a] belongs 9.4 nM; to `CC[C@@H](c1ccccc1)n1cc(NC(=O)c2n[nH]c3c2CC2CC2C3)cn1` (single isomer, unassigned) [Example 24b], 3.5 nM.
In turn, `CC[C@@H](c1ccccc1)n1cc(NC(=O)c2n[nH]c3c2C2CC2CC3)cn1` (single isomer, unassigned) [Example 25a] came in with a Ki of 1.7 nM.
`CC[C@@H](c1ccccc1)n1cc(NC(=O)c2n[nH]c3c2C2CC2CC3)cn1` (single isomer, unassigned) [Example 25b] came in with an inhibition constant Ki of 94 nM.
Turning to `CN(C)CCC(c1ccccc1)n1cc(NC(=O)c2n[nH]c3c2C2CC2CC3)cn1` (single isomer, unassigned) [Example 26a, N-(1-(3-(dimethylamino)-1-phenylpropyl)-1H-pyrazol-4-yl)-3,4,5,5a,6,6a-hexahydrocyclopropa[e]indazole-1-carboxamide], the Ki came out at 2 nM.
As for `CN(C)CCC(c1ccccc1)n1cc(NC(=O)c2n[nH]c3c2C2CC2CC3)cn1` (single isomer, unassigned) [Example 26b, N-(1-(3-(dimethylamino)-1-phenylpropyl)-1H-pyrazol-4-yl)-3,4,5,5a,6,6a-hexahydrocyclopropa[e]indazole-1-carboxamide], the Ki was found to be 46 nM.
As for `CN(C)CCC(c1ccccc1)n1cc(NC(=O)c2n[nH]c3c2C2CC2CC3)cn1` (single isomer, unassigned) [Example 26c, N-(1-(3-(dimethylamino)-1-phenylpropyl)-1H-pyrazol-4-yl)-3,4,5,5a,6,6a-hexahydrocyclopropa[e]indazole-1-carboxamide], the figure is 22 nM; as for `CN(C)CCC(c1ccccc1)n1cc(NC(=O)c2n[nH]c3c2C2CC2CC3)cn1` (single isomer, unassigned) [Example 26d, N-(1-(3-(dimethylamino)-1-phenylpropyl)-1H-pyrazol-4-yl)-3,4,5,5a,6,6a-hexahydrocyclopropa[e]indazole-1-carboxamide], 780 nM.
